Reference: PMC4627656, “Combining Metabolite-Based Pharmacophores with Bayesian Machine Learning Models for Mycobacterium tuberculosis Drug Discovery” (PLoS ONE, 2015)
Converted amounts (≈) assume the structure as drawn.

system: Mtb H37Rv strain; test: Resazurin (Alamar Blue) MIC assay against replicating Mtb; assay type: cell-based, Mycobacterium tuberculosis; settings: Mycobacterium tuberculosis, H37RV, in vitro cultured Mtb H37Rv; lowest concentration inhibiting ≥90% growth; initial hits, quinoxaline di-N-oxides, positive controls; read-out: Mtb MIC (H37Rv)

Row | SMILES | MIC [µg/mL]
1 | O=C(NCc1ccccn1)c1ccccc1[N+](=O)[O-] [BAS 00623753, 2-nitro-N-pyridin-2-ylmethyl-benzamide] | 5 (≈ 19.4 µM)
2 | c1coc(CNCc2c[nH]c3ccccc23)c1 [BAS 7571651, furan-2-ylmethyl-(1H-indol-3-ylmethyl)-amine] | 40 (≈ 177 µM)
3 | CO[C@H]1/C=C/O[C@@]2(C)Oc3c(C)c(O)c4c(O)c(c(/C=N/N5CCN(C)CC5)c(O)c4c3C2=O)NC(=O)/C(C)=C\C=C\[C@H](C)[C@H](O)[C@@H](C)[C@@H](O)[C@@H](C)[C@H](OC(C)=O)[C@@H]1C [Rifampicin, reference compound] | 0.0031 to 0.012 (≈ 0.00377 to 0.0146 µM)
4 | CC(=O)c1c(C)[n+]([O-])c2ccc(Cl)cc2[n+]1[O-] [SRI4] | 5 (≈ 19.8 µM)
5 | Cc1c(C(=O)c2ccccc2)[n+]([O-])c2cc(Cl)ccc2[n+]1[O-] [SRI8] | 10 (≈ 31.8 µM)
6 | COc1ccc2c(c1)[n+]([O-])c(C)c(C(=O)c1ccccc1)[n+]2[O-] [SRI9] | 5 (≈ 16.1 µM)
7 | Cc1c(C(=O)c2ccccc2)[n+]([O-])c2ccc([N+](=O)[O-])cc2[n+]1[O-] [SRI10] | 5 (≈ 15.4 µM)
8 | COc1ccc2c(c1)[n+]([O-])c(C(=O)c1cccnc1)c(C)[n+]2[O-] [SRI12] | 0.64 (≈ 2.06 µM)
9 | CCCCC(=O)c1c(C)[n+]([O-])c2ccc(Cl)cc2[n+]1[O-] [SRI17] | 2.5 (≈ 8.48 µM)
10 | Cc1c(C(=O)CC(C)C)[n+]([O-])c2cc(Cl)ccc2[n+]1[O-] [SRI18] | 10 (≈ 33.9 µM)
11 | CCCCCC(=O)c1c(C)[n+]([O-])c2cc(Cl)ccc2[n+]1[O-] [SRI20] | 5 (≈ 16.2 µM)
12 | C=CCCC(=O)c1c(C)[n+]([O-])c2cc(Cl)ccc2[n+]1[O-] [SRI22] | 5 (≈ 17.1 µM)
13 | CCC(=O)c1c(CC)[n+]([O-])c2cc(Cl)ccc2[n+]1[O-] [SRI23] | 5 (≈ 17.8 µM)
14 | CCC(=O)c1c(CC)[n+]([O-])c2ccc(Cl)cc2[n+]1[O-] [SRI24] | 10 (≈ 35.6 µM)
15 | Cc1c(C(=O)C2CC2)[n+]([O-])c2ccc(Cl)cc2[n+]1[O-] [SRI25] | 5 (≈ 17.9 µM)
16 | Cc1c(C(=O)C(C)C)[n+]([O-])c2ccc(Cl)cc2[n+]1[O-] [SRI27] | > 40
17 | Cc1c(C(=O)C(C)C)[n+]([O-])c2cc(Cl)ccc2[n+]1[O-] [SRI28] | 10 (≈ 35.6 µM)
18 | CCCCC(=O)c1c(C)[n+]([O-])c2cc(C)ccc2[n+]1[O-] [SRI30] | 5 (≈ 18.2 µM)
19 | CCC(=O)c1c(CC)[n+]([O-])c2cc(C)ccc2[n+]1[O-] [SRI32] | 5 (≈ 19.2 µM)
20 | Cc1ccc2c(c1)[n+]([O-])c(C)c(C(=O)CC(C)C)[n+]2[O-] [SRI34] | 20 (≈ 72.9 µM)
21 | COc1ccc2c(c1)[n+]([O-])c(C(=O)CC(C)C)c(C)[n+]2[O-] [SRI43] | 20 (≈ 68.9 µM)
22 | CC(C)=CCC/C(C)=C/CCC(=O)c1c(C)[n+]([O-])c2ccc(C)cc2[n+]1[O-] [SRI48] | 5 (≈ 13.6 µM)
23 | Cc1c(C(=O)O)[n+]([O-])c2ccccc2[n+]1[O-] [SRI53] | > 40
24 | Cc1c(C(=O)c2cccnc2)[n+]([O-])c2cc(Cl)c(Cl)cc2[n+]1[O-] [SRI55] | 2.5 (≈ 7.14 µM)
25 | CC(C)=CCC/C(C)=C/CCC(=O)c1c(C)[n+]([O-])c2cc(Cl)c(Cl)cc2[n+]1[O-] [SRI56] | 2.5 (≈ 5.91 µM)
26 | NNC(=O)c1ccncc1 [isoniazid, reference compound] | 0.0031 to 0.012 (≈ 0.0226 to 0.0875 µM)

same assay, conditions: Mycobacterium tuberculosis, H37RV, read-out: Mtb MIC (H37Rv), in vitro cultured Mtb H37Rv; lowest concentration inhibiting ≥90% growth; initial hits, quinoxaline di-N-oxides, positive controls

Row | SMILES | MIC [µg/mL]
27 | CC(C)=CCCC(=O)c1c(C)[n+]([O-])c2cc(Cl)c(Cl)cc2[n+]1[O-] [SRI57] | 1.2 (≈ 3.38 µM)

same assay, conditions: Mycobacterium tuberculosis, H37RV, read-out: Mtb MIC (H37Rv), synthesized BAS 00623753 and arylamide analogs (Table 1)

Row | SMILES | MIC [µg/mL]
28 | O=C(NCc1ccccn1)c1ccccc1[N+](=O)[O-] [BAS 00623753, 2-nitro-N-pyridin-2-ylmethyl-benzamide] | ≥ 50

same assay, conditions: Mycobacterium tuberculosis, H37RV, synthesized BAS 00623753 and arylamide analogs (Table 1); read-out: Mtb MIC (H37Rv)

Row | SMILES | MIC [µg/mL]
29 | CC(C)(NC(=O)c1ccccc1[N+](=O)[O-])c1ncccn1 [JSF-2176] | > 50
30 | O=C(NCc1ncccn1)c1ccccc1[N+](=O)[O-] [JSF-2178] | > 50

same assay, conditions: in vitro cultured Mtb H37Rv; lowest concentration inhibiting ≥90% growth; initial hits, quinoxaline di-N-oxides, positive controls

Row | SMILES | Mtb MIC (H37Rv) [µg/mL]
31 | O=C(NCc1ccccn1)c1ccccc1[N+](=O)[O-] [BAS 00623753, 2-nitro-N-pyridin-2-ylmethyl-benzamide] | 5
32 | CC(=O)c1c(C)[n+]([O-])c2ccc(C)cc2[n+]1[O-] [SRI2] | 5.0
33 | COc1ccc2c(c1)[n+]([O-])c(C(C)=O)c(C)[n+]2[O-] [SRI3] | 10
34 | CC(=O)c1c(C)[n+]([O-])c2cc([N+](=O)[O-])ccc2[n+]1[O-] [SRI5] | 2.5
35 | Cc1ccc2c(c1)[n+]([O-])c(C)c(C(=O)c1ccccc1)[n+]2[O-] [SRI6] | >40
36 | Cc1c(C(=O)c2ccccc2)[n+]([O-])c2ccc(Cl)cc2[n+]1[O-] [SRI7] | 5
37 | Cc1c(C(=O)c2cccnc2)[n+]([O-])c2ccc(Cl)cc2[n+]1[O-] [SRI11] | 10
38 | Cc1c(C(=O)c2cccnc2)[n+]([O-])c2ccc([N+](=O)[O-])cc2[n+]1[O-] [SRI13] | 20
39 | Cc1ccc2c(c1)[n+]([O-])c(C)c(C(=O)C(F)(F)F)[n+]2[O-] [SRI14] | 10
40 | COc1ccc2c(c1)[n+]([O-])c(C)c(C(=O)C(F)(F)F)[n+]2[O-] [SRI15] | 10
41 | CCCCC(=O)c1c(C)[n+]([O-])c2cc(Cl)ccc2[n+]1[O-] [SRI16] | 5
42 | Cc1c(C(=O)CC(C)C)[n+]([O-])c2ccc(Cl)cc2[n+]1[O-] [SRI19] | 5
43 | CCCCCC(=O)c1c(C)[n+]([O-])c2ccc(Cl)cc2[n+]1[O-] [SRI21] | 10
44 | Cc1c(C(=O)C2CC2)[n+]([O-])c2cc(Cl)ccc2[n+]1[O-] [SRI26] | 5
45 | CC(C)=CCCC(=O)c1c(C)[n+]([O-])c2cc(Cl)ccc2[n+]1[O-] [SRI29] | 5
46 | CCCCCC(=O)c1c(C)[n+]([O-])c2cc(C)ccc2[n+]1[O-] [SRI31] | 20
47 | Cc1ccc2c(c1)[n+]([O-])c(C)c(C(=O)C1CC1)[n+]2[O-] [SRI33] | 5
48 | C=CCCC(=O)c1c(C)[n+]([O-])c2cc(C)ccc2[n+]1[O-] [SRI35] | 4.3

Row | SMILES | Mtb MIC (H37Rv) [µg/mL]
49 | CC(C)=CCCC(=O)c1c(C)[n+]([O-])c2cc(C)ccc2[n+]1[O-] [SRI36] | 10
50 | CCC(=O)c1c(C)[n+]([O-])c2ccc(C)cc2[n+]1[O-] [SRI37] | 10
51 | Cc1ccc2c(c1)[n+]([O-])c(C)c(C(=O)C(C)C)[n+]2[O-] [SRI38] | 10
52 | CCCCC(=O)c1c(C)[n+]([O-])c2ccc(OC)cc2[n+]1[O-] [SRI39] | 10
53 | CCCCCC(=O)c1c(C)[n+]([O-])c2ccc(OC)cc2[n+]1[O-] [SRI40] | >40
54 | CCC(=O)c1c(CC)[n+]([O-])c2ccc(OC)cc2[n+]1[O-] [SRI41] | 40
55 | C=CCCC(=O)c1c(C)[n+]([O-])c2ccc(OC)cc2[n+]1[O-] [SRI44] | 20
56 | COc1ccc2c(c1)[n+]([O-])c(C(=O)CCC=C(C)C)c(C)[n+]2[O-] [SRI45] | 20
57 | CCC(=O)c1c(C)[n+]([O-])c2ccc(OC)cc2[n+]1[O-] [SRI46] | 20
58 | COc1ccc2c(c1)[n+]([O-])c(C(=O)CC/C=C(\C)CCC=C(C)C)c(C)[n+]2[O-] [SRI47] | 20
59 | CC(C)=CCC/C(C)=C/CCC(=O)c1c(C)[n+]([O-])c2ccc(Cl)cc2[n+]1[O-] [SRI49] | 5
60 | CC(C)=CCC/C(C)=C/CCC(=O)c1c(C)[n+]([O-])c2ccccc2[n+]1[O-] [SRI51] | 5
61 | Cc1c(C(=O)O)[n+]([O-])c2ccccc2[n+]1[O-] [SRI53] | >40
62 | CC(C)=CCCC(=O)c1c(C)[n+]([O-])c2cc(Cl)c(Cl)cc2[n+]1[O-] [SRI57] | 1.25
63 | CCCCCC(=O)c1c(C)[n+]([O-])c2cc(Cl)c(Cl)cc2[n+]1[O-] [SRI59] | 2.5
64 | Cc1c(C(=O)CC(C)C)[n+]([O-])c2cc(Cl)c(Cl)cc2[n+]1[O-] [SRI60] | 2.5
65 | C=CCCC(=O)c1c(C)[n+]([O-])c2cc(Cl)c(Cl)cc2[n+]1[O-] [SRI61] | 2.5
66 | Cc1c(C(=O)c2ccccc2)[n+]([O-])c2cc(Cl)c(Cl)cc2[n+]1[O-] [SRI62] | 2.5

same assay, conditions: synthesized BAS 00623753 and arylamide analogs (Table 1)

Row | SMILES | Mtb MIC (H37Rv) [µg/mL]
67 | O=C(NCc1ccccn1)c1ccccc1 [JSF-2133] | >50
68 | O=C(NCCc1ccccn1)c1ccccc1[N+](=O)[O-] [JSF-2170] | >50
69 | O=C(NCc1cnccn1)c1ccccc1[N+](=O)[O-] [JSF-2171] | >50
70 | Cc1cccnc1CNC(=O)c1ccccc1[N+](=O)[O-] [JSF-2172] | >50
71 | Cc1ccnc(CNC(=O)c2ccccc2[N+](=O)[O-])c1 [JSF-2173] | >50
72 | O=C(NCc1ccc(Cl)cn1)c1ccccc1[N+](=O)[O-] [JSF-2174] | >50
73 | Cc1ccc(CNC(=O)c2ccccc2[N+](=O)[O-])nc1 [JSF-2175] | >50
74 | O=C(NCc1ccncn1)c1ccccc1[N+](=O)[O-] [JSF-2177] | >50
75 | O=C(NCc1ccccn1)c1ccccc1F [JSF-2208] | >50
76 | Cc1ccccc1C(=O)NCc1ccccn1 [JSF-2209] | >50
77 | O=C(NCc1ccccn1)c1ccccc1[N+](=O)[O-] [JSF-2210] | >50
78 | O=C(NCc1ccccn1)c1ccccc1C(F)(F)F [JSF-2211] | >50

system: not listed separately; test: in vitro; settings: African green monkey

Row | SMILES | CC50 at 72 h [µg/mL]
79 | CC(=O)c1c(C)[n+]([O-])c2ccc(Cl)cc2[n+]1[O-] [SRI4] | > 40
80 | COc1ccc2c(c1)[n+]([O-])c(C(=O)c1cccnc1)c(C)[n+]2[O-] [SRI12] | 1.7 (≈ 5.46 µM)
81 | Cc1c(C(=O)c2cccnc2)[n+]([O-])c2cc(Cl)c(Cl)cc2[n+]1[O-] [SRI55] | > 40
82 | CC(C)=CCC/C(C)=C/CCC(=O)c1c(C)[n+]([O-])c2cc(Cl)c(Cl)cc2[n+]1[O-] [SRI56] | 4.5 (≈ 10.6 µM)
83 | CC(C)=CCCC(=O)c1c(C)[n+]([O-])c2cc(Cl)c(Cl)cc2[n+]1[O-] [SRI57] | > 40
